# Experimental data: patent US12544375B2, “Small molecule therapeutic for parkinson's disease paired with a biomarker of therapeutic activity” (The Board of Trustees of the Leland Stanford Junior …, priority 2019, dated 2026)
# Target: T1, Miro1 (Homo sapiens, UniProt Q8IXI2)
# T1 construct: We applied compound 3 to fibroblasts from one sporadic PD patient (PD-2); endogenous in cells; host or cells: human skin fibroblasts (PD-2, Healthy-1 and further PD/control lines)
# Test: Ubiquitination of immunoprecipitated Miro1 after CCCP 1 hr
# Assay type: cell-based
# Settings: PD-2 fibroblasts, with or without Miro1 Reducer
# Procedure: FIG. 8. Related to FIG. 2-4. Miro1 Reducer in Human Cell and Fly Models. (A) Fibroblasts from Healthy-1 and PD-2 were treated, lysed, and blotted as indicated. Band intensities are normalized to those of GAPDH from the same blots and compared to “Healthy-1, no treatment”. n=4 independent experiments. (B) Fibroblasts from PD-2 were treated and immunostained as indicated. The intensity was quantified for each cell across 264-320 cells from 3 independent experiments, compared to “no treatment”. (C) Fibroblasts were treated, immunoprecipitated (IPed) with anti-Miro1, and blotted as indicated. Similar results were observed twice. (D) Similar as in (C), fibroblasts were treated as indicated, and IPed with anti-Miro1. The GTPase activity of the IPed Miro1 protein was measured as described in Method. […] The MitoSox intensity was quantified for each cell across 106-161 cells from 3 coverslips. […] The TMRM intensity was measured for each cell across 48-60 cells from 3 independent experiments, and expressed as a fraction of the mean of “Healthy-1, no treatment”. […] The movement (the intensity of non-yellow) was quantified for each cell as described in (Tsai et al., 2014) across 22-31 cells from 3 transfections. […] (1) Left: The percentage of TH-positive iPSC-derived neurons out of total cells (Dapi-positive) is calculated after immunocytochemistry under 20× as described in FIG. 3. […]
# T1 sequence (Q8IXI2 whole entry): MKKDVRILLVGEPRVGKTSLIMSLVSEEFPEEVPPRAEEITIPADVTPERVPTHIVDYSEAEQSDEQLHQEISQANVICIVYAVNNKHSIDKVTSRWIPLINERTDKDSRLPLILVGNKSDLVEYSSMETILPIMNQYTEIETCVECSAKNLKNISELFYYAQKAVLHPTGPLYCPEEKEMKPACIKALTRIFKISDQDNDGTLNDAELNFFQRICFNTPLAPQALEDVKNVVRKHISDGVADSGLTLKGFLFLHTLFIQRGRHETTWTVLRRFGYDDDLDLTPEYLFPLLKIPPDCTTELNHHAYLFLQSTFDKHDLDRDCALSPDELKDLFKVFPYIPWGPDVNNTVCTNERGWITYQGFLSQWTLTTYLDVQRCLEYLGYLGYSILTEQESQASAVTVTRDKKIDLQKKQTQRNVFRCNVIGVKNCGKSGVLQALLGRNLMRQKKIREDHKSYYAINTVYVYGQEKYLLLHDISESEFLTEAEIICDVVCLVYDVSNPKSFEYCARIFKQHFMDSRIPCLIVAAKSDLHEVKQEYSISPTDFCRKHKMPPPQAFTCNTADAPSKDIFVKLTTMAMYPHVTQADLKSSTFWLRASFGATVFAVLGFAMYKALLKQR
structure (smiles),measurement,value
O=C(Nc1ccc(Nc2cc(-n3ccnc3)ncn2)cc1)Nc1cccc(F)c1 [Miro1 Reducer],depolarization-elicited increase of ubiquitination of IPed Miro1,did not occur
